The text below walks through data of ChEMBL document CHEMBL4387706, “Discovery of Novel Spiroindoline Derivatives as Selective Tankyrase Inhibitors” (J Med Chem, 2019).

Active and inactive are the calls of the source. The calls are words filed in the database; no cut-off is given here. Where only a bound is given, the exact number is not on record here.

Series [1] addresses Histamine H1 receptor (Homo sapiens) (UniProt P35367). Description: Displacement of [3H]pyrilamine from full-length recombinant human H1 receptor expressed in CHOK1 cells at 10 uM measured after 180 mins by scintillation counting method relative to control. Type of series: cell-based.
Series [2] is described as follows: Cmax in ICR mouse at 50 mg/kg, ip. Type of series: ADME, organism-based. To be noted: in vivo. On the set-up: dose 50 mg/kg, route intraperitoneal.
A further series is filed under the species Homo sapiens. Description: Effect on hippo signaling protein in human COLO320DM cells assessed as change in CTGF expression at 0.033 to 1 uM measured after 48 hrs by RT-PCR analysis. The series is classed as cell-based.
Series [3] concerns the target Muscarinic acetylcholine receptor M3 (Homo sapiens) (UniProt P20309). Description: Displacement of [3H]N-Methylscopolamine from full-length recombinant human M3 receptor expressed in CHOK1 cells at 10 uM measured after 120 mins by scintillation counting method relative to control. The series is classed as cell-based.
Series [4] concerns the target Cav1.2 (voltage-dependent L-type calcium channel subunit alpha-1C) (Rattus norvegicus, UniProt P22002). Description: Displacement of [3H]nitrendipine from Cav1.2 in Wistar rat cerebral cortex at 10 uM measured after 90 mins by scintillation counting method relative to control. The settings on record: probe [3H]nitrendipine. On the technique in general: In a radioligand displacement assay an active substance lowers the binding of a labelled ligand.

Series [5] has as its target Sodium-dependent dopamine transporter (Homo sapiens) (UniProt Q01959). Description: Displacement of [125I]RTI-55 from full-length recombinant human DAT receptor expressed in CHOS cells at 10 uM measured after 3 hrs by scintillation counting method relative to control. Type of series: cell-based.
In series [6] the target is Muscarinic acetylcholine receptor M1 (Homo sapiens) (UniProt P11229). Description: Displacement of [3H]N-Methylscopolamine from full-length recombinant human M1 receptor expressed in CHOK1 cells at 10 uM measured after 120 mins by scintillation counting method relative to control. Type of series: cell-based.
Chain of Muscarinic acetylcholine receptor M1 (Homo sapiens) (P11229 whole entry): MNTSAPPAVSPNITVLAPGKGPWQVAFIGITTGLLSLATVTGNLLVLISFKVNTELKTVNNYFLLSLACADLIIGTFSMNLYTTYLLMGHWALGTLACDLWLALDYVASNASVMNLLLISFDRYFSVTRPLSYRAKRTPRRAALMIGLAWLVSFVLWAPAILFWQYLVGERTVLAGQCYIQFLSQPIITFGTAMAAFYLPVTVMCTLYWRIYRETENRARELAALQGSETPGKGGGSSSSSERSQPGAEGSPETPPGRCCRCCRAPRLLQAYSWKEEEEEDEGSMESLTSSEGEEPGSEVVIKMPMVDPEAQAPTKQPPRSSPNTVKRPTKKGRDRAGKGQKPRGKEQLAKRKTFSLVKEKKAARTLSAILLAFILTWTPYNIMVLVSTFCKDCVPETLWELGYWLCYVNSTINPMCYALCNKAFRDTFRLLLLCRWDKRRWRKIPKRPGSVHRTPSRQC
The next series deals with T1, Tankyrase 1/2 (Homo sapiens, UniProt Q9H2K2+O95271).
T1 sequence (Q9H2K2 whole entry): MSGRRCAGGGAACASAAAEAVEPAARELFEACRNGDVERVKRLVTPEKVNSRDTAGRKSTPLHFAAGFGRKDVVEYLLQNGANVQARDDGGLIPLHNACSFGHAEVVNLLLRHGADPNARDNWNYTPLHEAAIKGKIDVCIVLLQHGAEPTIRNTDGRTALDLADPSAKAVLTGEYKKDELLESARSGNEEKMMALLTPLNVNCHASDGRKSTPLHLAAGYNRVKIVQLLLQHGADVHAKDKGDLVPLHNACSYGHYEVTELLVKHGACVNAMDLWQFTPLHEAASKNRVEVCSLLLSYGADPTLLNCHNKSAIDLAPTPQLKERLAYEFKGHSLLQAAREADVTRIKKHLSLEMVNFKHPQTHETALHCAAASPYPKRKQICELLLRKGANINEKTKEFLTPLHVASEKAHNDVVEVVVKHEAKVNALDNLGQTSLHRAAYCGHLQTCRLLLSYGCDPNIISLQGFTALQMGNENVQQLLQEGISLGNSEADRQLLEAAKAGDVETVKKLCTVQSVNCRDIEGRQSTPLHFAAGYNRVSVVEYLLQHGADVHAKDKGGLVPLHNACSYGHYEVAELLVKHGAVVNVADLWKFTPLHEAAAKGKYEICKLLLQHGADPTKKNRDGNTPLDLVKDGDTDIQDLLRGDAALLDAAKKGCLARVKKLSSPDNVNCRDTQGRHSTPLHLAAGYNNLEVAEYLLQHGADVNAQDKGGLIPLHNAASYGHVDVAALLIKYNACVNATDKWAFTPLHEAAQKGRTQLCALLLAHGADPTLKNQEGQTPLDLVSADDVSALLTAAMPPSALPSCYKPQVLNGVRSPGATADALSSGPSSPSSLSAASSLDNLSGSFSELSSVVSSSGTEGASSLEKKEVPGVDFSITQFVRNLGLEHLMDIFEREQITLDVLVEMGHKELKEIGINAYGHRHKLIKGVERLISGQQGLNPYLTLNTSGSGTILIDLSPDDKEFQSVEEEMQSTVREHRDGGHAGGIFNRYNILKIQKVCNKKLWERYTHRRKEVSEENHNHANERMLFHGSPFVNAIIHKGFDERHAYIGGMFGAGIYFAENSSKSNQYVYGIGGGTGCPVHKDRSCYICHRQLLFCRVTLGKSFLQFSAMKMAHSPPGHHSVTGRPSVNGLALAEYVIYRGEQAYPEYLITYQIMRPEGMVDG
T1 sequence (O95271 whole entry): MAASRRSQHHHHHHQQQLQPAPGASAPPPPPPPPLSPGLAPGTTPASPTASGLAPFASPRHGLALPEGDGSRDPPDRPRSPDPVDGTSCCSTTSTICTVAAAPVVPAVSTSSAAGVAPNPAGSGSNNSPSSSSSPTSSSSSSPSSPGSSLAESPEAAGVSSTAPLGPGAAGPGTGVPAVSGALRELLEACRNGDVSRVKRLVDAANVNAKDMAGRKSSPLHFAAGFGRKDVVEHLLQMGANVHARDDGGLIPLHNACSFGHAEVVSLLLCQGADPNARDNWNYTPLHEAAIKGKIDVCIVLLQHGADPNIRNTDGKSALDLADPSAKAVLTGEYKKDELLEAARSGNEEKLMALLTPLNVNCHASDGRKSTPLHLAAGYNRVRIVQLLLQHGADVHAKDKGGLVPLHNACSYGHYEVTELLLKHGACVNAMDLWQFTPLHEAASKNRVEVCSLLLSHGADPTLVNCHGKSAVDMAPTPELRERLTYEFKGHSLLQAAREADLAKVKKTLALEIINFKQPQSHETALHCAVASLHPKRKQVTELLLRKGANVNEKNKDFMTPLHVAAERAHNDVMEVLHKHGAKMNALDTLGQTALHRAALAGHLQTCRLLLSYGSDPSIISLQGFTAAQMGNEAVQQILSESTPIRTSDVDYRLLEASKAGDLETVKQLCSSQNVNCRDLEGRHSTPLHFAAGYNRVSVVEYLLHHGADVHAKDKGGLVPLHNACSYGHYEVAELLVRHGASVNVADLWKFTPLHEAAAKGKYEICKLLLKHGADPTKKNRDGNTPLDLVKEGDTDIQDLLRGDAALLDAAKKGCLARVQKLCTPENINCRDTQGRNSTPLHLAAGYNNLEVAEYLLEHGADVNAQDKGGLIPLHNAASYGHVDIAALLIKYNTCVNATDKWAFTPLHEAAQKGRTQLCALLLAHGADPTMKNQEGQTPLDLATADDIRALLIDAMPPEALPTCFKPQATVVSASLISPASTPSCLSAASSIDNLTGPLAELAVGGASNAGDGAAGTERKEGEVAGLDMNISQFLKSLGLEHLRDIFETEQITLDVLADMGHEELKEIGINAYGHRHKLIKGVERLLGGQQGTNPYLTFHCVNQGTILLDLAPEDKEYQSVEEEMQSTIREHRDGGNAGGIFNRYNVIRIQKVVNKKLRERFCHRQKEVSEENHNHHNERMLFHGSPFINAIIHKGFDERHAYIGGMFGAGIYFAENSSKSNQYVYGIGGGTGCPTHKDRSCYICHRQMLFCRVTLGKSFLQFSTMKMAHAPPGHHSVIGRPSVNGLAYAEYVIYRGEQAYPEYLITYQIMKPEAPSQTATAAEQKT
To be noted: hek293.

Chain of Cav1.2 (voltage-dependent L-type calcium channel subunit alpha-1C) (P22002 whole entry): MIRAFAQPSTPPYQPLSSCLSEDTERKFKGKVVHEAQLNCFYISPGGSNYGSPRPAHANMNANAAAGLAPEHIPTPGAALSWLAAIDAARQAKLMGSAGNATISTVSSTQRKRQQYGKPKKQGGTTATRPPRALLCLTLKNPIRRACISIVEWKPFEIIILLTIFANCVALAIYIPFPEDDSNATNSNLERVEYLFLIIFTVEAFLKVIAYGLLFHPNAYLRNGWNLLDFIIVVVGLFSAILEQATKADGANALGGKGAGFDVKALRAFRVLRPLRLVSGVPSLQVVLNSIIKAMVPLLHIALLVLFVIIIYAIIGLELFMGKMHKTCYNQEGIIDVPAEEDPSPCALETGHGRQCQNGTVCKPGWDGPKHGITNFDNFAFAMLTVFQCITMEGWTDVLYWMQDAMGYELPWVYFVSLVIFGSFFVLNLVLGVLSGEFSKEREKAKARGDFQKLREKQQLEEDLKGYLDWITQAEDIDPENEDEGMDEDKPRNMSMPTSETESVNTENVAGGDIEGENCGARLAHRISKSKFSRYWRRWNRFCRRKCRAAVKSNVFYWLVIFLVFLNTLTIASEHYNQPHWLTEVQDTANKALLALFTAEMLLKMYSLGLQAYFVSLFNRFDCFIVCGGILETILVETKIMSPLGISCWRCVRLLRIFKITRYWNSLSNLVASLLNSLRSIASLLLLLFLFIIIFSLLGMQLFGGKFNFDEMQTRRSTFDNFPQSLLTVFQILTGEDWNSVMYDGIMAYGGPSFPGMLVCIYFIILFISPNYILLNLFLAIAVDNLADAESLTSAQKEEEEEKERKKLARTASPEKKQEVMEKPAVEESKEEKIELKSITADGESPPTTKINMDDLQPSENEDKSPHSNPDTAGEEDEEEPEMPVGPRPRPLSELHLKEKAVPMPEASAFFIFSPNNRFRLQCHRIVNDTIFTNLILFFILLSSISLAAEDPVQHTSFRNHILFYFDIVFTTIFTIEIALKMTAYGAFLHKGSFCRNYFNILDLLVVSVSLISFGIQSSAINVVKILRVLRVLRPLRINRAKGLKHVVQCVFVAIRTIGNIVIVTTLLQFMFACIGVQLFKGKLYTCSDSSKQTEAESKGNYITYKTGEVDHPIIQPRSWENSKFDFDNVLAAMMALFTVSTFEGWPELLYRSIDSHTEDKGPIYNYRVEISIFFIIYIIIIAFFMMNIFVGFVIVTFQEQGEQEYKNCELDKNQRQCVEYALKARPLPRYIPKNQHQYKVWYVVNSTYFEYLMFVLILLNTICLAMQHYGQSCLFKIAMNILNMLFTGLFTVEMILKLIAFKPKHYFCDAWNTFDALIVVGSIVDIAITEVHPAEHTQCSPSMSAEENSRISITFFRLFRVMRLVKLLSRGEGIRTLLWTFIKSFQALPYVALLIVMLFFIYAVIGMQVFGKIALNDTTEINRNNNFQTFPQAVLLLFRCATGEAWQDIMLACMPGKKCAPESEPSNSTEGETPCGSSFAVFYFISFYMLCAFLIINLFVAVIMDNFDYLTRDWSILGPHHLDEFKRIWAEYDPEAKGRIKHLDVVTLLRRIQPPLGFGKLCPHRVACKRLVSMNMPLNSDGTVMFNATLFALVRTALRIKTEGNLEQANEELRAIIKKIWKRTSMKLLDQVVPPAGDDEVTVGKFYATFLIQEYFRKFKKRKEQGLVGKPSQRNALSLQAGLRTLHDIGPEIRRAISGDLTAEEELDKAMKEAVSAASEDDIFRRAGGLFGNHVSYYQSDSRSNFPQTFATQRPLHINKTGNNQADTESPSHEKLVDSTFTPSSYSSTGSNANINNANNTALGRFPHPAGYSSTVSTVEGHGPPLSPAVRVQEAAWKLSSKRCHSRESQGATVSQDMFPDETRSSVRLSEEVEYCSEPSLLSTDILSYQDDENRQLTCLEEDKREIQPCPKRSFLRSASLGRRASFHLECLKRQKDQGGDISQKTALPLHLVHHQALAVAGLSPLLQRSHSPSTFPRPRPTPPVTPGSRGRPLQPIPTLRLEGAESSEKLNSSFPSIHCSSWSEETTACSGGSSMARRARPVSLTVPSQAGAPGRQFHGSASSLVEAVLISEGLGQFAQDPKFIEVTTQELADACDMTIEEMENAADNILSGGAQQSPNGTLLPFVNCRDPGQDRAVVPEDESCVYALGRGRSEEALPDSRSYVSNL
Chain of Muscarinic acetylcholine receptor M3 (Homo sapiens) (P20309 whole entry, looked up): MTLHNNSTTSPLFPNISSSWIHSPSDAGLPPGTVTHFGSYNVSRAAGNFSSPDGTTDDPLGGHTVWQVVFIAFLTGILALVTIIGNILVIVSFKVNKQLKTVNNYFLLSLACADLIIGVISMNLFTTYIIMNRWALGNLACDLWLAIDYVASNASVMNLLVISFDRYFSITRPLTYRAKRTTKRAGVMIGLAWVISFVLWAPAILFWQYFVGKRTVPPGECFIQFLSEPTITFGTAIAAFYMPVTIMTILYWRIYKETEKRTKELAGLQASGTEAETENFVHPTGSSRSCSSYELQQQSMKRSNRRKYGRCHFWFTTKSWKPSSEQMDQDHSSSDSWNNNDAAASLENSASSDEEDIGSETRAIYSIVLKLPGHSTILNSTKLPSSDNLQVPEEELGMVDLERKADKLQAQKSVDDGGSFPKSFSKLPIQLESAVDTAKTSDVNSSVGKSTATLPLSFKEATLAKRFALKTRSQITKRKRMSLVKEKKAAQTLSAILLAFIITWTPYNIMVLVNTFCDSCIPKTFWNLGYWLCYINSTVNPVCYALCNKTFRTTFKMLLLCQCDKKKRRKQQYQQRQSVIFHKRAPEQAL
Chain of Histamine H1 receptor (Homo sapiens) (P35367 whole entry): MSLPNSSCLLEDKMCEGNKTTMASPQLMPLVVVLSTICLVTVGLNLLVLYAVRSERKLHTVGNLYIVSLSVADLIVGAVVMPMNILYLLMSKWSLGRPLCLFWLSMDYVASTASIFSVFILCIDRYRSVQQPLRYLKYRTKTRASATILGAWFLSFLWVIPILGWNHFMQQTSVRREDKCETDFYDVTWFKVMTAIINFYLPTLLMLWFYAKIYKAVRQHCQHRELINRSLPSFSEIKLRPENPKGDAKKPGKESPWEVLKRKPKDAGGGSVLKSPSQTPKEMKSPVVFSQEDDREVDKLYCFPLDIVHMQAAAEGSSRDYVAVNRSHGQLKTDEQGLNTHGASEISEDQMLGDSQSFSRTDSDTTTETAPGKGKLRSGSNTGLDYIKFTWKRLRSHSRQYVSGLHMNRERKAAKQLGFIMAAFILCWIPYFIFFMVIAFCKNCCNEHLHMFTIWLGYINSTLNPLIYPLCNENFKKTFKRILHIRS
Chain of Sodium-dependent dopamine transporter (Homo sapiens) (Q01959 whole entry): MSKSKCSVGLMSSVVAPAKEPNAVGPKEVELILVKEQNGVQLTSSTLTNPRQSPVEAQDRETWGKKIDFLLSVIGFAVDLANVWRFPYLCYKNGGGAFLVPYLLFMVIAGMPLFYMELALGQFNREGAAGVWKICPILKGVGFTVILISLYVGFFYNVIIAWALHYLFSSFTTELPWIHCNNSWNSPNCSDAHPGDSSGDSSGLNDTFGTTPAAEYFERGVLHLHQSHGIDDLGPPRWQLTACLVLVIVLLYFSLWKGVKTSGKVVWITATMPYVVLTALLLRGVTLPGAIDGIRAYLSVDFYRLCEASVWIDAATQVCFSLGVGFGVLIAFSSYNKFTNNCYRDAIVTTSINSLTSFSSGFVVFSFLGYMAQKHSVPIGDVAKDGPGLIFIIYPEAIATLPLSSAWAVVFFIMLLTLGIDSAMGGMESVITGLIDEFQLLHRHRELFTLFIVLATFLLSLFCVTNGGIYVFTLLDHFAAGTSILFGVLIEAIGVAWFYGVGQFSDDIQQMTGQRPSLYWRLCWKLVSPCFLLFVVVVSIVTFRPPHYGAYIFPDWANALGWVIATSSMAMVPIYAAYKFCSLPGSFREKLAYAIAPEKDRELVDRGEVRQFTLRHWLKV
Description for Tankyrase 1/2: Inhibition of TNKS/TNKS2 (unknown origin) expressed in HEK293 cells assessed as reduction in Wnt-signaling measured after 24 hrs by TCF-luciferase reporter gene assay

As to `O=c1[nH]c(N2CCC3(CC2)CN(CCO)c2cc(F)cc(F)c23)nc2c1CCCC2`, the inhibition in series [1], in series [3], in series [5] and in series [6] was more than 20% each time. Besides, in series [2], the Cmax – broadly, the highest concentration seen after dosing – stood at 199 µM. In addition, the outcome in the series listed under Homo sapiens was inactive. Moreover, the inhibition (commonly the change of the read-out against control, counted positive when it falls) at 1.5 h, 10 µM in series [4] is more than 20%.
Regarding `COc1ccccc1N1CCN(c2nc3c(c(=O)[nH]2)CCCC3)CC1`, the IC50 (commonly the point on the concentration scale where inhibition reaches its midpoint) on Tankyrase 1/2 worked out at 42.9 nM.
